The values that follow are results of earlier work, collected in US11202786B2, “Synthetic bile acid compositions and methods” (ALLERGAN SALES, LLC, priority 2007, dated 2021).

The conditions of data set [1]: neutral pH.
A further data set deals with albumin (Homo sapiens, UniProt P02768). To be noted: 0.4 mg/mL deoxycholate (comparable to the fasting state), in the presence of 26 mg/mL of albumin.
Chain of albumin (P02768 25-609): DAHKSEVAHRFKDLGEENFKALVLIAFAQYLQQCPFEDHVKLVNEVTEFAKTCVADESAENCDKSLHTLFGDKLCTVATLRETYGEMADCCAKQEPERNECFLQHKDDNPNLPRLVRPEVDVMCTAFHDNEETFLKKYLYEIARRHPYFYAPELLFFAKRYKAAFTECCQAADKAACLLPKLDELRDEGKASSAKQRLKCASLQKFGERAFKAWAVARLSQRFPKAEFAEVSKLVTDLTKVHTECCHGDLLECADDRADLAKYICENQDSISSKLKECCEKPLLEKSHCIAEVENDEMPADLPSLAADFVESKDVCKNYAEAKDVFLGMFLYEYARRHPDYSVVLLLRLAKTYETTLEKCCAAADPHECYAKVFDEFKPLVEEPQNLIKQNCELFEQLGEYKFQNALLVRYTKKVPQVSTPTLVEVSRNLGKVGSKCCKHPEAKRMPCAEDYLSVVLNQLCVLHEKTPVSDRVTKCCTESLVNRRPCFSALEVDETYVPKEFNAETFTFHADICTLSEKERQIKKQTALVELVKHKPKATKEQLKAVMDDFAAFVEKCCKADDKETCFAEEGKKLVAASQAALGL

Take `C[C@H](CCC(=O)[O-])[C@H]1CC[C@H]2[C@@H]3CC[C@@H]4C[C@H](O)CC[C@]4(C)[C@H]3C[C@H](O)[C@]12C.[Na+]` [Deoxycholate, sodium deoxycholate]: the solubility in acetone entry (acetone, compared with alcohol) is “even less soluble”. Also, the soluble in water (water) is recorded as 333 mg/mL. In data set [1], the critical micelle concentration entry is given as “approximately 2.4 mg/mL”. The bound to albumin on albumin is reported as 98%.
